Assay results reported in patent US12281225B2, “Process for preparing stable polymers containing vinylimidazole” (BASF SE, priority 2018, dated 2025).

What was measured:
[1] = Physical stability; visual assessment (color, turbidity, phase separation); type: physicochemical; design: key: ++: no discernible change with respect to color, turbidity or phase separation; +: marginal change in color number, somewhat increased Tyndall effect but no turbidity; 0: easily discernible increase in color number and moderate turbidity−no phase separation; −: turbidity and change in color number readily discernible by visual assessment; −−: strong color change with strong turbidity and incipient phase separation
How it was run: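 Scoring was by eye on a scale from ++ to −−, where ++ means no change and −− means strong color change, strong turbidity and incipient phase separation. Color, turbidity and phase separation were the criteria.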

[2] = system: Bacteria: Escherichia coli, Staphylococcus aureus, Pseudomonas aeruginosa, Pseudomonas putida, Burkholderia cepacia, Alcaligenes faecalis; assay: Preservation test with periodic inoculation, bacteria assessment; type: cell-based; settings: for Start sample measurement, bact. assess., 4th inoculation: freshly formulated; for 60 d 40° C., bact. assess., 4th inoculation: sample stored 60 d at 40° C.
How it was run: (§1)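 Semiquantitative growth scores (−− no growth to ++ strong growth) from weekly agar streaks incubated 3 days at 25 °C. Preserved polymer samples got four weekly 0.5 ml inoculations (titer 10^9 organisms/ml), the first two days after preservative addition; testing began fresh and after 60-day storage at 40 °C.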

[3] = Iodine color number according to DIN 6162:2014-09; type: physicochemical
[4] = system: Yeast: Candida albicans, Candida valida, Rhodotorula rura, Saccharomyces cerevisiae; assay: Preservation test with periodic inoculation, yeast assessment; type: cell-based; settings: sample stored 60 d at 40° C.
How it was run: as §1

[5] = Polymer P5 (HP56) with stabilizer

## Cn1sccc1=O [MIT, methyl-4-isothiazolin-3-one]
[1]; Polymer P1 with stabilizer
  Physical stability, 60 d 40° C.*: −
[1]; Polymer P2 with stabilizer
  Physical stability, 60 d 40° C.*: −
[1]; Polymer P3 with stabilizer
  Physical stability, 60 d 40° C.*: −
[1]; Polymer P4 with stabilizer
  Physical stability, 60 d 40° C.*: −
[1]; [5]
  Physical stability, 60 d 40° C.*: −
[1]; Polymer P6 with stabilizer
  Physical stability, 60 d 40° C.*: −
[1]; Polymer P7 with stabilizer
  Physical stability, 60 d 40° C.*: −
[1]; Polymer P8 with stabilizer
  Physical stability, 60 d 40° C.*: −
[1]; Polymer P9 with stabilizer
  Physical stability, 60 d 40° C.*: −
[2]; Polymer P1
  Start sample measurement, bact. assess., 4th inoculation: − (slight growth, max. 100 colonies)
  60 d 40° C., bact. assess., 4th inoculation: +
[2]; Polymer P2
  Start sample measurement, bact. assess., 4th inoculation: − (slight growth, max. 100 colonies)
  60 d 40° C., bact. assess., 4th inoculation: +
[2]; Polymer P3
  Start sample measurement, bact. assess., 4th inoculation: − (slight growth, max. 100 colonies)
  60 d 40° C., bact. assess., 4th inoculation: +
[2]; Polymer P4
  60 d 40° C., bact. assess., 4th inoculation: +
[2]; Polymer P5 (HP56)
  60 d 40° C., bact. assess., 4th inoculation: +
[2]; Polymer P6
  60 d 40° C., bact. assess., 4th inoculation: +
[2]; Polymer P7
  60 d 40° C., bact. assess., 4th inoculation: +
[2]; Polymer P8
  Start sample measurement, bact. assess., 4th inoculation: − (slight growth, max. 100 colonies)
  60 d 40° C., bact. assess., 4th inoculation: +
[2]; Polymer P9
  60 d 40° C., bact. assess., 4th inoculation: +
[3]; Polymer P1 with stabilizer
  Iodine color number, 60 d 40° C.: 5.5
  Iodine color number, start: 2.5
[3]; Polymer P2 with stabilizer
  Iodine color number, 60 d 40° C.: 5.8
  Iodine color number, start: 2.7
[3]; Polymer P3 with stabilizer
  Iodine color number, 60 d 40° C.: 8.5
  Iodine color number, start: 3.4
[3]; Polymer P4 with stabilizer
  Iodine color number, 60 d 40° C.: 8.7
  Iodine color number, start: 3.4
[3]; [5]
  Iodine color number, 60 d 40° C.: 8.7
  Iodine color number, start: 3.6
[3]; Polymer P6 with stabilizer
  Iodine color number, 60 d 40° C.: 8.5
  Iodine color number, start: 3.6
[3]; Polymer P7 with stabilizer
  Iodine color number, 60 d 40° C.: 8.5
  Iodine color number, start: 3.6
[3]; Polymer P8 with stabilizer
  Iodine color number, 60 d 40° C.: 8.6
  Iodine color number, start: 3.5
[3]; Polymer P9 with stabilizer
  Iodine color number, 60 d 40° C.: 12.7
  Iodine color number, start: 3.9
[4]; Polymer P1
  60 d 40° C., yeast assess., 4th inoculation: 0 (moderate growth, max. 400 colonies)
[4]; Polymer P2
  60 d 40° C., yeast assess., 4th inoculation: +
[4]; Polymer P3
  60 d 40° C., yeast assess., 4th inoculation: ++
[4]; Polymer P4
  60 d 40° C., yeast assess., 4th inoculation: ++
[4]; Polymer P5 (HP56)
  60 d 40° C., yeast assess., 4th inoculation: ++
[4]; Polymer P6
  60 d 40° C., yeast assess., 4th inoculation: ++
[4]; Polymer P7
  60 d 40° C., yeast assess., 4th inoculation: ++
[4]; Polymer P8
  60 d 40° C., yeast assess., 4th inoculation: +
[4]; Polymer P9
  60 d 40° C., yeast assess., 4th inoculation: ++
